From article PMC8147976, “Partitioning and Spatial Distribution of Drugs in Ocular Surface Tissues” (Pharmaceutics, 2021)
Where two headings read alike, the source gives them in different places. Values belong to the molecule of their own block, whether it stands above or below them.

Experiments:
[1] = Drug distribution in porcine ocular tissues ex vivo, comparison across tissues; type: in vitro ADME; settings: for time to reach equilibrium in tissue: porcine tissues ex vivo, Figure 1
Source text: Cornea. […] Bulbar conjunctiva.

[2] = cited from earlier work
[3] = de-epithelized vs intact cornea; ref [29],[46]; cited from earlier work
[4] = for ratio of signal against twice the signal of propranolol, Epithelium 10 min / ratio of signal against twice the signal of propranolol, Epithelium 60 min: rabbit corneal epithelium; for ratio of signal against twice the signal of propranolol, Epithelium 10 min / ratio of signal against twice the signal of propranolol, Stroma 10 min: 10 min after eye drop; for ratio of signal against twice the signal of propranolol, Epithelium 10 min / ratio of signal against twice the signal of propranolol, Epithelium 60 min / ratio of signal against twice the signal of propranolol, Stroma 10 min / ratio of signal against twice the signal of propranolol, Stroma 60 min: MALDI-IMS; for ratio of signal against twice the signal of propranolol, Epithelium 60 min / ratio of signal against twice the signal of propranolol, Stroma 60 min: 60 min after eye drop; for ratio of signal against twice the signal of propranolol, Stroma 10 min / ratio of signal against twice the signal of propranolol, Stroma 60 min: rabbit corneal stroma
Method: Three months old female New Zealand White rabbits, 2.5–2.8 kg (Envigo Laboratories, Blackthron, Bicester, UK), were used in the study to determine the distribution of drugs in the cornea. […] The rabbits were sacrificed by injecting a lethal dose (2 mL/kg) of pentobarbital (Mebunat vet 60 mg/mL; Orion Pharma, Finland) into the marginal ear vein at 10, 20, and 60 min post-dosing. The eyes were removed and snap-frozen with liquid nitrogen in plastic tubes and stored at −80 °C until sample preparation and analysis with MALDI-IMS.
The frozen eyes were mounted onto a chuck using an optimal cutting temperature compound (Sakura Finetek, Torrance, CA, USA). The samples were sectioned to 20 μm or 35 μm thickness at −20 °C on a Leica CM Cryostat (S3050, Leica Microsystems GmbH, Wetzlar, Germany) and collected on a cryo-film (3C16UF, SECTION-LAB Co. Ltd., Yokohama, Japan) by a modified Kawamoto method. The film was subsequently mounted onto a microscope glass slide using a double-sided copper tape, and the sample slides were dried in a lyophilization chamber. The slides were washed twice with 50 mM ammonium formate for 10 s and dried in a vacuum desiccator. The sample slides contained sections from three eyes from the eye drop experiment and three blanks. The matrix α-cyano-4hydroxycinnamic acid (CHCA) (7 mg/mL in 50% acetonitrile containing 1% trifluoro acetic acid) (Sigma-Aldrich, St. Louis, MO, USA) was added via spray deposition using 10 passes, flow rate of 100 μL/min, temperature of 77 °C, track spacing of 2.5 mm, and velocity of 1300 mm/min (TM-Sprayer, HTX Technologies, Chapel Hill, NC, USA).
Fourier transform-ion cyclotron resonance (FT-ICR) MALDI-IMS was performed using a Bruker 7T SolariX XR mass spectrometer (Bruker Daltonics, Bremen, Germany) at 50 μm spatial resolution for the corneal area and 150 μm spatial resolution for the rest of the eye. […] MALDI images of each signal were plotted with a 5 mDa mass window using flexImaging^TM software (v4.1, Bruker Daltonics, Bremen, Germany) with datasets normalized by the RMS method and pixel interpolation.
The data for calculation was obtained by taking six crosscuts through the cornea; no normalization was used.

[5] = ex vivo, 180 min epithelial side exposure, donor 2 ng/µL
[6] = ex vivo, 180 min epithelial side exposure, donor 2 ng/µL; remark: listed apart in the source
[7] = ex vivo, 180 min epithelial side exposure, donor 2 ng/µL; remark: listed apart in the source
in vitro = settings: pig, pH 7.4
[8] = design: method as in PMID 3246568; settings: inferior drug insert application, rabbit; ref [56]; cited from earlier work
[9] = n-octanol/buffer solution distribution coefficient at pH 7.4, ref [10],[44]

difference in concentration between corneal epithelium, corneal stroma and conjunctiva ([1]; ex vivo): two-fold
time to reach equilibrium in tissue [1]: ≈ 30 min
SMILES: CC(C)NCC(O)COc1ccc(CC(N)=O)cc1 (stereo not drawn) [Atenolol]

time to reach equilibrium in tissue [1]: ≈ 60 min
SMILES: CC(C)NCC(O)COc1ccc(CCOCC2CC2)cc1 (stereo not drawn) [Betaxolol]
Log D7.4 ([2]; as listed in Table S2): 0.43
Log D7.4 [2, 9]: 0.43
change of permeability in de-epithelized corneas [3]: only modest or no changes

SMILES: COCCc1ccc(OCC(O)CNC(C)C)cc1 (stereo not drawn) [Metoprolol]
Log D7.4 ([2]; as listed in Table S2): −0.5

time to reach equilibrium in tissue [1]: ≈ 30 min
SMILES: CC(C)(C)NCC(O)COc1cccc2c1CC(O)C(O)C2 (stereo not drawn) [Nadolol]
Log D7.4 [2, 9]: −1.54

SMILES: CC(C)NCC(O)COc1cccc2[nH]ccc12 (stereo not drawn) [Pindolol]
Log D7.4 ([2]; as listed in Table S2): 0.06
Log D7.4 [2, 9]: −0.5
ratio of signal against twice the signal of propranolol, Epithelium 10 min [4]: 0.21 ± 0.01
ratio of signal against twice the signal of propranolol, Epithelium 60 min [4]: 0.356± 0.08
ratio of signal against twice the signal of propranolol, Stroma 10 min [4]: 0.57 ± 0.00
ratio of signal against twice the signal of propranolol, Stroma 60 min [4]: 0.83 ± 0.13

SMILES: CC(C)NCC(O)COc1cccc2ccccc12 (stereo not drawn) [Propranolol]
change of permeability in de-epithelized corneas [3]: only modest or no changes
concentration in conjunctiva [5]: 1.24 ng/mg
MALDI-IMS signal intensity in corneal tissues and aqueous humor ([4]; rabbit, in vivo): highest intensity
concentration in corneal stroma [6]: 0.83 ng/mg
time to reach equilibrium in tissue [1]: ≈ 60 min
concentration in corneal epithelium [7]: 9.46 ng/mg tissue
Kp at 3 h, 2 µg/mL (in vitro): 4.7

SMILES: CC(C)(C)NC[C@H](O)COc1nsnc1N1CCOCC1 [Timolol]
Log D7.4 [2, 9]: −1.43
ratio of signal against twice the signal of propranolol, Epithelium 10 min [4]: 0.19 ± 0.02
ratio of signal against twice the signal of propranolol, Epithelium 60 min [4]: 0.25 ± 0.08
ratio of signal against twice the signal of propranolol, Stroma 10 min [4]: 0.36 ± 0.01
ratio of signal against twice the signal of propranolol, Stroma 60 min [4]: 0.45 ± 0.17
MALDI-IMS signal in corneal tissues and aqueous humor ([4]; rabbit, in vivo): below the limit of detection in many pixels
timolol levels in the inferior relative to the superior cornea [8]: 4–6 fold
time to reach equilibrium in tissue [1]: ≈ 30 min
